Data taken from US20140364454A1, “METAL-CHELATING COMPOUNDS HAVING AT LEAST ONE POLYAMINO CHAIN” (UNIVERSITE DE RENNES I, priority 2011, published 2014).
Like-named read-outs stand apart in the source and are kept apart here.

Assays:
[1] = pH 7.4; stated reference values; cited from earlier work
[2] = tested on: Caco-2 cells; experiment: LDH release of Caco-2 cells; format: cell-based, human
Description: (§1) The action of Quilamines on the cell viability was analyzed on enterocyte cells of the Caco-2 tumor cell line derived from human colon carcinoma and compared with the action of ICL670 in the presence or absence of exogenous iron, after activation (DFMO) or competitive inhibition by spermidine, of the PTS. The operating conditions used are identical to those used for CHO/CHO-MG and HepG2 cells.
As in the case of the other cell lines in proliferative phase presented here above, the dose-effect curves of the action of the Quilamines on the number of viable cells (number of nuclei) are biphase curves with a cytostatic constituent for concentration values of below 30 micromoles per liter and a cytotoxic constituent with release of LDH for concentration values above 30 micromoles per liter. Only this second cytotoxic constituent is observed when the cells of the Caco-2 cell line are treated after confluence (stopping of the proliferation).

[3] = tested on: Caco-2 cells; experiment: Cell viability of proliferating Caco-2 cells (number of nuclei); format: cell-based, human
Description: as §1
The results for the measurement of the anti-proliferative effect of Quilamines, and of ICL670 on the proliferating cells (cytostatic constituent) when there is no exogenous iron have been listed in the table 4 below.

[4] = tested on: wild cell line (CHO) of hamster ovarian cells; experiment: Anti-proliferative effect on CHO cells, counting of cell nuclei (Hoechst 33342); format: cell-based; settings: CHO, 72 h, read-out: IC50 CHO
Description: (§2) The in vitro efficacy of different Quilamines was tested on a wild cell line (CHO) of hamster ovarian cells having PTS and a mutant cell line CHO-MG without PTS. The two cell types CHO and CHO-MG were treated, 24 hours after being seeded in 96-well microplates, by concentrations of different Quilamines ranging from 0.1 to 400 micromoles per liter. The cytostatic (anti-proliferative) effects and cytotoxic effects of Quilamine after 72 hours' treatment of the cells were assessed respectively by counting cell nuclei after DNA marking by the Hoechst 33342 fluorescent intercalant dye and by analysis of membrane damage detected by the dosing of the lactate dehydrogenase activity (LHD) in the supernatants.
The IC50 inhibitor concentration corresponding to the concentration in Quilamines enables the inhibition at 50% of the cell proliferation was deduced from the dose-effect curves of numeration of the nuclei of the living cells on the CHO and CHO-MG cell lines. […] The lower the value of IC50, the greater the efficiency of the anti-proliferative effect of the tested chelators.
(§3) A comparison was made of the cytostatic or anti-proliferative action and the cytotoxic action for 72 h of treatment by Quilamine HQ1-44 and 8-hydroxyquinoline and ICL670, on the CHO cell lines in the presence and without the presence of exogenous iron, in the form of Fe(III) citrate in a concentration of 20 micromoles per liter. The results obtained are shown in FIG. 4, FIG. 4A relating to the results on cell viability and FIG. 4B relating to the results on cell toxicity.

[5] = Potentiometry: stability constants and pFe3+ of the iron complex; format: physicochemical; settings: pH 7.4
Description: The complexation affinity of Quilamine with the metal ion in the organism reflects the chelating capacity or chelating power of Quilamine. This affinity can be assessed by measuring the value of pW corresponding to −log of the concentration in free metal ion W, i.e. non-complexated by the Quilamine for a ratio of respective concentrations of Quilamine (10 micromoles per liter) and metal ion (1 micromole per liter) equal to 10, at 25° C. and pH 7.4. The higher the value of pW, the greater the affinity of Quilamine with metal ion. The affinity of Quilamine with iron in its ferric form (Fe(III)) and its ferrous form (Fe(II)) is measured respectively by pFe^3+ and pFe^2+ at physiological pH (pH=7.4), at 25° C.
Potentiometry measurements were made in thermostated titration cells at 25±0.1° C., using a Metrohm 702 SM Titrino titrator connected to a Metrohm 6.0233.100. The ligand solution is prepared in a concentration of ˜1.5×10^−3 moles per liter, the solution of Fe^3+ is made from FeCl3 and titrated by complexation with a standard solution of EDTA (ethylenediaminetetracetic acid). The sample for the measurement contained approximately 0.03 millimoles per liter of ligand in a volume of 30 ml where the ionic strength is maintained at 0.1 mole per liter in using KNO3 as a support electrolyte. During the titrations, Fe^3+ is added to 0.45 or 0.9 equivalents of ligand. Each titration consists of 150-200 equilibrium points with pH varying from 2.0 to 11.5, and is repeated at least twice. The thermodynamic constants are computed with the software […] and the speciation diagram of the species is done by the Hyss program.

[6] = tested on: CHO cells; experiment: Cytotoxic effect on CHO cells, LDH release in supernatants; settings: CHO
Description: as §2, §3

[7] = tested on: mutant cell line CHO-MG without PTS; experiment: Anti-proliferative effect on CHO-MG cells without PTS, counting of cell nuclei; format: cell-based, hamster
Excerpt: The IC50 inhibitor concentration corresponding to the concentration in Quilamines enables the inhibition at 50% of the cell proliferation was deduced from the dose-effect curves of numeration of the nuclei of the living cells on the CHO and CHO-MG cell lines. These dose-effect curves are sometimes bi-phase curves as in the case of Quilamine HQ1-44 which has an anti-proliferative constituent (without concomitant release of LDH in supernatant) in the range of concentrations of 0.4 to 3 micromoles per liter and a second cytotoxic constituent accompanied by membrane toxicity expressed by the release of LDH for concentrations of over […]. The lower the value of IC50, the greater the efficiency of the anti-proliferative effect of the tested chelators.
Furthermore, the ratio of the IC50 inhibitor concentrations found for the CHO-MG and the CHO cell lines (Ratio IC50 (CHO-MG/CHO)) was computed for several Quilamines according to the invention. This ratio makes it possible to estimate the selectivity of recognition of the different chelators by the PTS: the higher the ratio, the more clearly is the chelator recognized by the PTS. When this ratio is close to 1, the tested chelator is not recognized or is little recognized by the PTS.

SMILES: O=C(O)CC(O)(CC(=O)O)C(=O)O [citrate]
- pFe3+ [1]: 19.3

SMILES: Oc1cccc2cccnc12 [8-hydroxyquinoline, reference compound]
- % LDH/control 10 μM ([2]; Caco-2 J4, 10 μM): 281%
- % LDH/control 100 μM ([2]; Caco-2 J4, 100 μM): 353%
- Constituent 2 (10-100 μM) % cell ([3]; Caco-2 J4, no exogenous iron): 100%
- IC50 ([3]; Homo sapiens, Caco-2, read-out: Constituent 2 (10-100 μM) IC50): 5 µM
- IC50 [4]: 5 µM
- pFe3+ [5]: 20.6
- influence of exogenous iron on the cytotoxic effect ([6]; Fe(III) citrate 20 micromoles per liter): no modification
- chelator concentration giving cytotoxic effect with release of LDH ([6]; absence of exogenous iron): greater than or equal to 5 micromoles per liter
- IC50 ([7]; CHO-MG, 72 h treatment): 10.5 µM
- Ratio IC50 (CHO-MG/CHO) ([7]; selectivity of recognition by the PTS): 2

SMILES: O=C(O)CN(CC(=O)O)Cc1cc2c(cc1O)Oc1cc(O)c(CN(CC(=O)O)CC(=O)O)cc1C21OC(=O)c2ccccc21 [Calcein, reference compound]
- pFe3+ [1]: 20.3
